≈ marks a conversion by molar mass, not a printed value. Where two headings read alike, the source gives them in different places.
Key:
LLC-PK1 cells = assay: cytotoxic activity against mammalian cells in tissue culture (MTT); format: cell-based, pig
Protocol: (§1) All media contained 100 μg/ml of penicillin G and streptomycin. 24-wells microplates containing appropriate medium were inoculated with the cells in amount of 1.2×10^4 cells/well and allowed to stand overnight. Next, tested compounds as solution in dimethylsulfoxide (DMSO) were added in volume of 10 μl (serial 2× dilutions). To control well 10 μl of DMSO was added. Microplates with cell suspensions were incubated for 120 h at temperature 37° C. at atmosphere of 95%/5% CO2. After incubation, to all wells 200 μl of solution of 3-(4,5-dimethyltiazole-2-yl)-2,5-diphenylotetrazole bromide (MTT) in PBS (4 mg/ml) was added and plates were further incubated for 4 h at 37° C. Next, to dissolve crystals of formazane 1 ml of DMSO was added and absorption of solutions was measured at the wavelength λ=540 nm (A540), using a microplates reader (Victor^3, Perkin-Wallac). […] From these graphs IC50 values were read, that is concentration of tested compound in the presence at which A540 value is half of A540 value measured in the control sample.

CCRF-CEM cells = assay: as above; format: cell-based, human
Protocol: as §1

HepG2 cells = assay: as above; format: cell-based, human
Protocol: as §1

Human erythrocytes = assay: hemotoxicity determination (hemolytic activity); format: cell-based
Protocol: The hemotoxicity determination was carried out by the serial dilutions method, according to the procedure described earlier (Slisz, M., et al., E., J Antibiot 57: 669-678 (2004). Human erythrocytes were suspended in the solution of saline to obtain a cell density of suspension 2×10^7/ml. Suitable amounts of diluted solutions of compounds were added to the cell suspension in tubes and were incubated at 37° C. for 30 minutes and then centrifuged (1700×g, 10 min, 4° C.). The concentration of hemoglobin in supernatant after centrifugation of erythrocytes suspension were determined by measuring the absorbance at wavelength λ=540 nm (A540). The maximum level of hemolysis was obtained after incubation of cells suspension in the presence of 0.1% Tritone X-100 (control sample). […] From these graphs, the EH50 values were read which are the interpolated concentrations of compound, for which the A540 value is exactly 50% of the A540 value measured for the control sample.

Candida krusei DSM 6128 = assay: antifungal activity in vitro, serial dilution in RPMI 1640; format: cell-based
Protocol: (§2) For the determination of antifungal activity in vitro we used method of serial dilution in buffered medium RPMI 1640, pH 7.0, in a 96-wells microplates, according to the standard procedure (National Committee for Clinical Laboratory Standards. Reference method for broth dilution antifungal susceptibility testing of yeast, approved standard, 2nd ed. M27-A2 vol. 22 Wayne, Pa., 2002). The optical density of cells suspension was measured using a microplates reader (Victor^3, Perkin-Elmer) at the wavelength λ=531 nm (A531). On the basis of obtained results the diagrams of relation between A531 values and concentration of examined compound were made.

[1] = test system: Candida tropicalis KKP 334; assay: as above; format: cell-based
Protocol: as §2

[2] = test system: Candida albicans ATCC 10231; assay: as above; format: cell-based
Protocol: as §2

[3] = test system: Candida lusitaniae DSM 70102; assay: as above; format: cell-based
Protocol: as §2

[4] = test system: Candida glabrata DSM 11226; assay: as above; format: cell-based
Protocol: as §2

[5] = test system: Saccharomyces cerevisiae ATCC 9763; assay: as above; format: cell-based; conditions: RPMI 1640, pH 7.0; for Antifungal activity IC50: Saccharomyces cerevisiae ATCC 9763 (first head over MIC and IC50); for Antifungal activity MIC: Saccharomyces cerevisiae ATCC 9763
Protocol: as §2

SMILES | IC50 (cytotoxic activity) (LLC-PK1 cells) [µg/mL] | IC50 (cytotoxic activity) (CCRF-CEM cells) [µg/mL] | IC50 (cytotoxic activity) (HepG2 cells) [µg/mL] | Hemotoxi EH50 (Human erythrocytes) [µg/mL] | Antifungal activity MIC (Candida krusei DSM 6128) [µg/mL] | Antifungal activity MIC [1] [µg/mL] | Antifungal activity MIC [2] [µg/mL] | Antifungal activity MIC [3] [µg/mL] | Antifungal activity MIC [4] [µg/mL] | Antifungal activity IC50 [5] [µg/mL] | Antifungal activity MIC [5] [µg/mL] | Hemotoxi EH50 (Human erythrocytes; human erythrocytes, 37° C., 30 minutes) [µg/mL] | IC50 (cytotoxic activity) (LLC-PK1 cells; LLC-PK1, 120 h, MTT) [µg/mL] | IC50 (cytotoxic activity) (CCRF-CEM cells; CCRF-CEM, 120 h, MTT) [µg/mL] | IC50 (cytotoxic activity) (HepG2 cells; HepG2, 120 h, MTT) [µg/mL]
CCCN(CC1(O)OCC(O)C(O)C1O)C1C(O)C(C)OC(OC2C=CC=CC=CC=CC=CC=CC=CC(C)C(O)C(C)C(C)OC(=O)CC(O)CC(O)CCC(O)C(O)CC(O)CC3(O)CC(O)C(C(=O)O)C(C2)O3)C1O (stereo not shown) [Compound A16, N-fructosyl-N-n-propylamphotericin B] | >100 | 50.1 ± 1.3 (≈ 44.4 µM) | 73.3 ± 1.20 (≈ 65 µM) |  |  |  |  |  |  |  |  |  |  |  | 
C[C@@H]1[C@H](O)[C@@H](C)/C=C/C=C/C=C/C=C/C=C/C=C/C=C/[C@H](O[C@@H]2O[C@H](C)[C@@H](O)[C@H](NC(=S)NCCN3CCOCC3)[C@@H]2O)C[C@@H]2O[C@](O)(C[C@@H](O)C[C@@H](O)[C@H](O)CC[C@@H](O)C[C@@H](O)CC(=O)O[C@H]1C)C[C@H](O)[C@H]2C(=O)O [Compound A24, N-{[3-(2-morpholin-1-yl)ethyl]thioureidyl}amphotericin B] | >100 | 80.9 ± 2.3 (≈ 73.8 µM) | >100 | >100 | 4 | 2 | 2 | 2 | 4 | 1.13 | 2 |  |  |  | 
CCN(CC)CCNC(=S)N[C@@H]1[C@H](O)[C@H](O[C@H]2/C=C/C=C/C=C/C=C/C=C/C=C/C=C/[C@H](C)[C@@H](O)[C@@H](C)[C@H](C)OC(=O)C[C@H](O)C[C@H](O)CC[C@@H](O)[C@H](O)C[C@H](O)C[C@]3(O)C[C@H](O)[C@@H](C(=O)O)[C@H](C2)O3)O[C@H](C)[C@H]1O [Compound A25, N-{3-[2-(N,N-diethylamino)ethyl]thioureidyl}amphotericin B] | >100 | >100 | >100 | >100 | 4 | 2 | 2 | 2 | 4 | 0.85 | 2 |  |  |  | 
C[C@@H]1[C@H](O)[C@@H](C)/C=C/C=C/C=C/C=C/C=C/C=C/C=C/[C@H](O[C@@H]2O[C@H](C)[C@@H](O)[C@H](NC(=S)NCCN3CCCC3)[C@@H]2O)C[C@@H]2O[C@](O)(C[C@@H](O)C[C@@H](O)[C@H](O)CC[C@@H](O)C[C@@H](O)CC(=O)O[C@H]1C)C[C@H](O)[C@H]2C(=O)O [Compound A27, N-{[3-(2-pyrrolidin-1-yl)ethyl]thioureidyl}amphotericin B] | >100 | >100 | >100 | >100 | 4 | 2 | 2 | 2 | 4 | 0.75 | 2 |  |  |  | 
C[C@@H]1[C@H](O)[C@@H](C)/C=C/C=C/C=C/C=C/C=C/C=C/C=C/[C@H](O[C@@H]2O[C@H](C)[C@@H](O)[C@H](NC(=S)NCCN(C)C)[C@@H]2O)C[C@@H]2O[C@](O)(C[C@@H](O)C[C@@H](O)[C@H](O)CC[C@@H](O)C[C@@H](O)CC(=O)O[C@H]1C)C[C@H](O)[C@H]2C(=O)O [Compound A28, N-{3-[2-(N,N-dimethylamino)ethyl]thioureidyl}amphotericin B] | >100 | >100 | >100 | 81.73 | 2 | 1 | 1 | 1 | 4 | 0.50 | 1 |  |  |  | 
C[C@@H]1[C@H](O)[C@@H](C)/C=C/C=C/C=C/C=C/C=C/C=C/C=C/[C@H](O[C@@H]2O[C@H](C)[C@@H](O)[C@H](NC(=O)[C@H](N)CC(=O)OC(C)(C)C)[C@@H]2O)C[C@@H]2O[C@](O)(C[C@@H](O)C[C@@H](O)[C@H](O)CC[C@@H](O)C[C@@H](O)CC(=O)O[C@H]1C)C[C@H](O)[C@H]2C(=O)O [Compound A35, N-D-(O^β-tert-butyl)asparagylamphotericin B] |  |  |  |  | 4 | 4 | 4 | 2 | 4 | 1.40 | 4 | >100 | 70.7 ± 2.3 (≈ 64.5 µM) | >100 | >100
